Data on eight compounds can be found in patent US10259810B2, “N-sulfonylated pyrazolo[3,4-b]pyridin-6-carboxamides and method of use” (AbbVie S.à.r.l., priority 2015, dated 2019).

Test [1] concerns the target T1, ΔF508-CFTR (Homo sapiens, UniProt P13569, DEL508-508).
T1 construct: host or cells: CFBE41o-, doxycycline-inducible
Put plainly: CFTR cell surface levels using HRP-tagged ΔF508-CFTR expressing CFBE cells, intrinsic corrector capacity. In kind it is cell-based. On the set-up: % Activation: concentration or dose not given beside the values. Particulars: HRP-tagged ΔF508-CFTR expressing CFBE41o- cells, compound alone (intrinsic corrector capacity), 20 hours at 33° C.; for EC50: read-out: EC50. An excerpt: Measuring CFTR Cell Surface Levels Using HRP-Tagged ΔF508-CFTR Expressing CFBE Cells
The HRP-tagged ΔF508-CFTR cell assay measures the expression of CFTR-ΔF508 at the plasma membrane. CFTR-ΔF508 has a folding defect leading to absence of protein at the plasma membrane. This assay is used to evaluate the capacity of compounds to increase the expression of CFTR-ΔF508 at the plasma membrane. The CFTR-ΔF508 is tagged with HRP (horse radish peroxidase enzyme) within the ECL4 (Extracellular loop 4) of CFTR (Phuan, P.-W. et al. Synergy-based small-molecule screen using a human lung epithelial cell line yields ΔF508-CFTR correctors that augment VX-809 maximal efficacy. Mol. Pharmacol. 86, 42-51 (2014)). When HRP-tagged ΔF508-CFTR is present at the plasma membrane, the HRP enzyme activity can be measured. The amount of CFTR-ΔF508 that can be rescued to the plasma membrane is correlated with the amount of functional enzyme that can be measured.
There are several ways to measure the capacity of compounds to rescue CFTR-ΔF508 to the plasma membrane; either compounds are evaluated on their own and the impact on plasma membrane levels is measured or compounds are evaluated in combination with a co-corrector, i.e. a compound that rescues CFTR-ΔF508 to the plasma membrane but rescue can be enhanced by addition of compounds due to a complementary mode of action.
Activity of Compounds for their Intrinsic Corrector Capacity:
For this purpose doxycycline-inducible ΔF508-CFTR-HRP expressing CFBE4lo− cells (obtained from Gergely Lukacs, McGill University) were maintained in MEM (Gibco; 31095) supplemented with 10% fetal bovine serum (Hyclone; SV30160.03) under puromycin (3 μg/mL) and G418 selection (0.2 mg/mL). For compound testing, cells were seeded at 4000 cells/well in white 384-well plates (Greiner; 781080) in 50 μL medium containing 0.5 μg/mL doxycycline and incubated for 68 hours at 37° C., 5% CO2. On day four, […] compounds diluted in PBS were added to the plates at a final DMSO concentration of 0.1%. All compound plates contained negative controls (DMSO) and positive controls ([…] corrector, 3-[(2R,4R)-4-({[1-(2,2-difluoro-1,3-benzodioxol-5-yl)cyclopropyl]carbonyl}amino)-7-methoxy-3,4-dihydro-2H-chromen-2-yl]benzoic acid). Cell plates were incubated at 33° C., 5% CO2 for 20 hours. On day five, the cells were washed five times with phosphate-buffered saline, and HRP activity was assayed by the addition of 50 μL/well of HRP substrate (SuperSignal™ West Pico Chemiluminescent Substrate, Thermo Scientific; 34080). After incubation for 15 minutes in the dark, chemiluminescence was measured using a plate reader (EnVision®, Perkin Elmer). Raw data were normalized to percentage activity values using the equation: 100×(Sample−Negative control)/(Positive control−Negative Control).

Test [2] concerns the target T1, ΔF508-CFTR. Put plainly: CFTR cell surface levels using HRP-tagged ΔF508-CFTR expressing CFBE cells, in the presence of a co-corrector. In kind it is cell-based. Particulars: HRP-tagged ΔF508-CFTR CFBE cells, in the presence of 3 μM co-corrector; for EC50: read-out: EC50. The gist of the method: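 Chemiluminescent read-out of surface HRP (15 min, dark) after PBS washes. Activity is normalized as 100×(sample−DMSO)/(3 μM co-corrector alone−DMSO).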

By EC50 is commonly meant the concentration needed to bring the measured effect to its halfway point.

T1 sequence (P13569 with tags, fused parts or gaps DEL508-508): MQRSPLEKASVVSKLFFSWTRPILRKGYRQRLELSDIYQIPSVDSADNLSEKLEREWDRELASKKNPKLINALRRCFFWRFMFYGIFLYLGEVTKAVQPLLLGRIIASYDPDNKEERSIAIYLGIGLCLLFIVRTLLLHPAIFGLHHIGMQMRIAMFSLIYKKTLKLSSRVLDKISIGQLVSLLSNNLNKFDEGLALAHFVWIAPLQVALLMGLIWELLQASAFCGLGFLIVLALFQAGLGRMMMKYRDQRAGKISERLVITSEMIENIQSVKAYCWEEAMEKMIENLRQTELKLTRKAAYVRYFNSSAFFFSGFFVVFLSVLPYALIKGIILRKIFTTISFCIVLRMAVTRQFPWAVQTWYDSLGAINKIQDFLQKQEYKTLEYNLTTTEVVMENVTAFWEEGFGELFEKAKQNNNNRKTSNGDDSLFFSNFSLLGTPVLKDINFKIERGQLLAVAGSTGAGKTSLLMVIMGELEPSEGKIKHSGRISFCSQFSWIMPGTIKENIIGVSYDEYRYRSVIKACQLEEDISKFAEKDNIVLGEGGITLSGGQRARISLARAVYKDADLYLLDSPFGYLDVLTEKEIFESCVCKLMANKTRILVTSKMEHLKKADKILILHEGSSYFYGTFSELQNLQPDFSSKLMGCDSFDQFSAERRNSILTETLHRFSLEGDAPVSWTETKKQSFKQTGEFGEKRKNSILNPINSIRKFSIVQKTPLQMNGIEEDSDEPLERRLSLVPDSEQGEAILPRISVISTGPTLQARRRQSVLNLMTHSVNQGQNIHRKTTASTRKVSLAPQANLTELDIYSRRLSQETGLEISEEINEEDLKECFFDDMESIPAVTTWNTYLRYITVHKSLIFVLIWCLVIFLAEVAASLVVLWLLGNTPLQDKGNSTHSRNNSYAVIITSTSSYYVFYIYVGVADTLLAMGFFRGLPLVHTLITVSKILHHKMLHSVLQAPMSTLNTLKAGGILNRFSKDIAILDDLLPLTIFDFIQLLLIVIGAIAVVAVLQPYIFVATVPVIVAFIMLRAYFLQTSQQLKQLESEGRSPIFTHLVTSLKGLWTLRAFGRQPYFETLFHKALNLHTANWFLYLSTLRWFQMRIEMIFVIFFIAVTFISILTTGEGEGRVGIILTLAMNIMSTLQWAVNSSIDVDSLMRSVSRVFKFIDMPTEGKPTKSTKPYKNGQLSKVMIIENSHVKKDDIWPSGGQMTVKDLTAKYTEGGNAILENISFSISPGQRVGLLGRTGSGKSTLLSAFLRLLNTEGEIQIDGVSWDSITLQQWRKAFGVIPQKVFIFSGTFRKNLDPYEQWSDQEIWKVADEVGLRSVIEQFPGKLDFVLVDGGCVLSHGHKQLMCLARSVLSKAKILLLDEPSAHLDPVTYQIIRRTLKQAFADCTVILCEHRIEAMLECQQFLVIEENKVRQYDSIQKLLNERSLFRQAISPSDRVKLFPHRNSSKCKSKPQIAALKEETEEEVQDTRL

Consider `CC(C)c1nn(-c2ccccc2)c2nc(C(=O)NS(C)(=O)=O)cc(-c3cnc(N4CCOCC4)nc3)c12` [Compound 20, N-(methanesulfonyl)-4-[2-(morpholin-4-yl)pyrimidin-5-yl]-1-phenyl-3-(propan-2-yl)-1H-pyrazolo[3,4-b]pyridine-6-carboxamide], for which, at ΔF508-CFTR [1], the “% Activation” value is listed as 210.3% and the EC50 came to 669 nM. Moreover, at ΔF508-CFTR [2], the “% Activation” value is reported as 417.5% and the EC50 turned out to be 546 nM.

On to `Cc1nn(-c2ccc(F)cc2F)c2nc(C(=O)NS(C)(=O)=O)cc(-c3ccc(N4CCOCC4)cc3)c12` [Compound 21, 1-(2,4-difluorophenyl)-N-(methanesulfonyl)-3-methyl-4-[4-(morpholin-4-yl)phenyl]-1H-pyrazolo[3,4-b]pyridine-6-carboxamide], for which, on ΔF508-CFTR [1], the “% Activation” value is listed as 264.25% and the EC50 worked out at 685 nM. On ΔF508-CFTR [2], the “% Activation” value was 440.1% and the EC50 worked out at 525 nM.

Consider `CC(C)c1nn(C2CCCCC2)c2nc(C(=O)NS(C)(=O)=O)cc(-c3ccc(N(C)C)nc3)c12` [Compound 22, 1-cyclohexyl-4-[6-(dimethylamino)pyridin-3-yl]-N-(methanesulfonyl)-3-(propan-2-yl)-1H-pyrazolo[3,4-b]pyridine-6-carboxamide], for which, at ΔF508-CFTR [1], the “% Activation” value is 161.5% and the EC50 came out at 732 nM. For the same compound, at ΔF508-CFTR [2], the “% Activation” value came out at 371.55% and the concentration for a half-maximal effect (EC50) is 503 nM.

For the compound `Cc1nn(-c2cc(F)cc(F)c2)c2nc(C(=O)NS(C)(=O)=O)cc(-c3ccc(N4CCOCC4)cc3)c12` [Compound 23, 1-(3,5-difluorophenyl)-N-(methanesulfonyl)-3-methyl-4-[4-(morpholin-4-yl)phenyl]-1H-pyrazolo[3,4-b]pyridine-6-carboxamide], the entries for the “% Activation” value on ΔF508-CFTR [1] and on ΔF508-CFTR [2] were 287.3% and 468.85%, respectively. Moreover, the EC50 was 883 nM on ΔF508-CFTR [1] and 573 nM at ΔF508-CFTR [2].

With `Cc1cc(C)cc(-n2nc(C)c3c(-c4ccc(N5CCOCC5)cc4)cc(C(=O)NS(C)(=O)=O)nc32)c1` [Compound 24, 1-(3,5-dimethylphenyl)-N-(methanesulfonyl)-3-methyl-4-[4-(morpholin-4-yl)phenyl]-1H-pyrazolo[3,4-b]pyridine-6-carboxamide], the “% Activation” value came to 193.75% on ΔF508-CFTR [1] and 380.5% on ΔF508-CFTR [2]. The EC50 turned out to be 888 nM at ΔF508-CFTR [1] and 744 nM on ΔF508-CFTR [2].

As for `Cc1nn(-c2ccc(F)c(F)c2)c2nc(C(=O)NS(C)(=O)=O)cc(-c3ccc(N4CCOCC4)cc3)c12` [Compound 25, 1-(3,4-difluorophenyl)-N-(methanesulfonyl)-3-methyl-4-[4-(morpholin-4-yl)phenyl]-1H-pyrazolo[3,4-b]pyridine-6-carboxamide], at ΔF508-CFTR [1], the “% Activation” value came out at 247.23% and the EC50 was found to be 997 nM. Further, on ΔF508-CFTR [2], the “% Activation” value was determined as 437.17% and the EC50 was 640 nM.

With `Cc1nn(-c2cccc(C(F)(F)F)c2)c2nc(C(=O)NS(C)(=O)=O)cc(-c3ccc(N(C)C)cc3)c12` [Compound 26, 4-[4-(dimethylamino)phenyl]-N-(methanesulfonyl)-3-methyl-1-[3-(trifluoromethyl)phenyl]-1H-pyrazolo[3,4-b]pyridine-6-carboxamide], the “% Activation” value is on record as 202.25% at ΔF508-CFTR [1] and 449.7% on ΔF508-CFTR [2]. Besides, the EC50 at ΔF508-CFTR [1] is 1850 nM; at ΔF508-CFTR [2] it was 1550 nM.

Regarding `COc1ccc(-c2cc(C(=O)NS(C)(=O)=O)nc3c2c(C)nn3-c2cccc(C)c2)cc1` [Compound 27, N-(methanesulfonyl)-4-(4-methoxyphenyl)-3-methyl-1-(3-methylphenyl)-1H-pyrazolo[3,4-b]pyridine-6-carboxamide], on ΔF508-CFTR [1], the “% Activation” value was found to be 145.5% and the EC50 is 1220 nM. Besides, at ΔF508-CFTR [2], the “% Activation” value came out at 365.2% and the EC50 was 714 nM.
